Experimental data taken from publication PMC8759730, “Targeting allosteric sites of human aromatase: a comprehensive in-silico and in-vitro workflow to find potential plant-based anti-breast cancer therapeutics” (Journal of Enzyme Inhibition and Medicinal Chemistry, 2021).
Read-outs that look alike come from different tables or passages of the source.

Experiments:
MCF-7 (ER+) cells = assay: Antiproliferative assay, MCF-7; type: cell-based; conditions: for IC50: read-out: MCF-7 IC50
MDA-MB-231 (ER-) cells = assay: Antiproliferative assay, MDA-MB-231; type: cell-based
[1] = target: T1, Recombinant Human Aromatase (HA) (Homo sapiens, UniProt P11511); assay: HA inhibition assay (Aromatase Inhibitor Screening Kit, fluorogenic substrate); type: biochemical; conditions: for Ki: values inside parenthesis, unit inferred, read-out: HA (Ki), inhibition constant (converted)
T1 sequence (P11511 1-503): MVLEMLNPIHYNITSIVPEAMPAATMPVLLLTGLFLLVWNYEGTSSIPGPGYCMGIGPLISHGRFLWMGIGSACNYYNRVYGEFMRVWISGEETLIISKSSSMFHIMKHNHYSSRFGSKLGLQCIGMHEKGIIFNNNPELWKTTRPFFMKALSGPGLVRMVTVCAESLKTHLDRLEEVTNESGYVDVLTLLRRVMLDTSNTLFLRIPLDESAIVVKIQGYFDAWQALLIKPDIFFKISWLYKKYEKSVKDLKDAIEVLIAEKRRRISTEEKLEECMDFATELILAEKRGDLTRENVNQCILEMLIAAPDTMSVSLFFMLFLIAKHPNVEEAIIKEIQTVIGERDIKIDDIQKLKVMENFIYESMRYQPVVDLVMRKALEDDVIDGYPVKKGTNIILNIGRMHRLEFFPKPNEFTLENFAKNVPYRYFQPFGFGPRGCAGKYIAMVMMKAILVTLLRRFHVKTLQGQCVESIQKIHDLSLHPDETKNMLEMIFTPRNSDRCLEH

[2] = Homo sapiens, MCF7, 72 h, 72 h, with 10 µM testosterone undecanoate
[3] = Homo sapiens, MDA-MB-231, 72 h, 72 h; read-out: MDA-MB-231 IC50
[4] = kinetic experiments at varied substrate concentration
[5] = tested at 200-0.1 µM, triplicate, read-out: HA IC50
[6] = Homo sapiens, MDA-MB-231, 72 h, read-out: MDA-MB-231 IC50

Row | SMILES | HA inhibitory activity (in words) [1] | IC50 (MCF-7 (ER+) cells; [2]) [µM] | IC50 (MDA-MB-231 (ER-) cells; [3]) [µM] | IC50 [1, 5] [µM] | also measured
1 | C=C(C)[C@@H]1CC[C@]2(CO)CC[C@]3(C)[C@H](CC[C@@H]4[C@@]5(C)CC[C@H](O)C(C)(C)[C@@H]5CC[C@]43C)[C@@H]12 [Betulin] | very weak inhibitory activity |  |  |  | Activity against MCF-7 (in words) (MCF-7 (ER+) cells): very weak inhibitory activity; IC50 (MCF-7 (ER+) cells; Homo sapiens, MCF7, 72 h): 67 ± 2.6 µM; Activity against MDA-MB-231 (in words) (MDA-MB-231 (ER-) cells): very weak inhibitory activity; IC50 (MDA-MB-231 (ER-) cells; Homo sapiens, MDA-MB-231, 72 h; read-out: MDA-MB-231 IC50): > 100 µM; IC50 [1]: 95.3 µM; Mode of inhibition [1]: Non-competitive
2 | O=c1cc(-c2ccccc2)oc2cc(O)cc(O)c12 [Chrysin] |  | 7.8 ± 2.8 | 65 ± 2.3 |  | 
3 | Cc1coc2c1C(=O)C(=O)c1c-2ccc2c1CCCC2(C)C [Tanshinone IIA] |  | ~2.1 | ~2.1 | 42.5 ± 1.2 | IC50 (MCF-7 (ER+) cells; 72 h, with 10 µM testosterone undecanoate): 1.4 ± 1.3 µM; IC50 (MDA-MB-231 (ER-) cells; 72 h; read-out: MDA-MB-231 IC50): 3.7 ± 1.7 µM; Mode of inhibition [1, 4]: Non-competitive; Ki [1]: 40.9 µM
4 | N#Cc1ccc(C(c2ccc(C#N)cc2)n2cncn2)cc1 [Letrozole, reference compound] |  | 5.6 ± 1.1 | 41.3 ± 2.1 |  | 
5 | COc1ccc(-c2cc(=O)c3c(OC)c(OC)c(OC)c(OC)c3o2)cc1 [Tangeretin] | inactive | 30.3 ± 2.1 | 45.6 ± 3.8 | > 100 | 
6 | CC1=CC(=O)CC(C)(C)[C@@]1(O)/C=C/C(C)=C\C(=O)O [Abscisic acid] | inactive |  |  | > 100 | Activity against MCF-7 (in words) (MCF-7 (ER+) cells): inactive; IC50 (MCF-7 (ER+) cells; Homo sapiens, MCF7, 72 h): > 100 µM; Activity against MDA-MB-231 (in words) (MDA-MB-231 (ER-) cells): inactive; IC50 (MDA-MB-231 (ER-) cells; [6]): > 100 µM
7 | C[C@@H]1O[C@@H](OC[C@H]2O[C@@H](Oc3c(-c4ccc(O)c(O)c4)oc4cc(O)cc(O)c4c3=O)[C@H](O)[C@@H](O)[C@@H]2O)[C@H](O)[C@H](O)[C@H]1O [Rutin] | inactive | > 100 | > 100 | > 100 | Activity against MCF-7 (in words) (MCF-7 (ER+) cells): inactive; Activity against MDA-MB-231 (in words) (MDA-MB-231 (ER-) cells): inactive
8 | CC(C)=CCc1c2c(c3occ(-c4ccc(O)c(O)c4)c(=O)c3c1O)C=CC(C)(C)O2 [Pomiferin] |  | 5.4 ± 2.2 | 30.9 ± 3.1 | 15.1 ± 0.5 | Mode of inhibition [1, 4]: Non-competitive; Mode of inhibition ([1]; kinetic experiments at varied substrate concentration, listed as pomiferin): non-competitive inhibition; Ki [1]: 14.8 µM
9 | Oc1ccc(/C=C/c2cc(O)cc(O)c2)cc1 [Resveratrol] |  | 11 ± 2.2 | 38 ± 3.5 |  | 
10 | O=c1cc(-c2ccc(O)cc2)oc2cc(O)cc(O)c12 [Apigenin] |  |  |  |  | IC50 (MCF-7 (ER+) cells; Homo sapiens, MCF7, 72 h): 13.6 ± 3.5 µM; IC50 (MDA-MB-231 (ER-) cells; [6]): 60 ± 1.6 µM
11 | COc1ccc2cc3[n+](cc2c1OC)CCc1cc2c(cc1-3)OCO2 [Berberine] |  | 10.2 ± 2.6 | > 100 | 21.4 ± 0.9 | Mode of inhibition [1, 4]: Non-competitive; Mode of inhibition ([1]; kinetic experiments at varied substrate concentration, listed as berberine): non-competitive inhibition; Ki [1]: 20.1 µM
